This is an account of results in US11584746B2, “Inhibitors of EGFR and methods of use thereof” (DANA-FARBER CANCER INSTITUTE, INC., priority 2018, dated 2023).

In experiment [1] the test system is EGFR T790M/L858R Ba/F3 cell line. In words: Ba/F3 cell proliferation (MTS assay), EGFR T790M/L858R. Type of experiment: cell-based, murine. The note with it: for inhibition at 1 µM: compound at 1 μM, EGFR T790M/L858R Ba/F3, read-out: Inhibition of proliferation, Activity (% DMSO control). The method, then:
The selectivity between wild-type EGFR and EGFR containing one or more mutations as described herein can also be measured using cellular proliferation assays where cell proliferation is dependent on kinase activity. […] Proliferation assays are performed at a range of inhibitor concentrations (e.g., 10 μM, 3 μM, 1.1 μM, 330 nM, 110 nM, 33 nM, I1 nM, 3 nM, 1 nM) and an EC50 is calculated.
All cell lines were maintained in RPMI 1640 (Cellgro; Mediatech Inc., Herndon, Calif.) supplemented with 10% FBS 100 units/mL penicillin, 100 units/mL streptomycin, and 2 mM glutamine. […] The EGFR I941R mutation was introduced via site directed mutagenesis using the Quick Change Site-Directed Mutagenesis kit (Stratagene; La Jolla, Calif.) according to the manufacturer's instructions. All constructs were confirmed by DNA sequencing. The constructs were shuttled into the retroviral vector JP1540 using the BD Creator™ System (BD Biosciences). Ba/F3 cells were infected with retrovirus and according to standard protocols, as described previously (Zhou 2009). Stable clones were obtained by selection in puromycin (2 μg/ml).
Growth and inhibition of growth was assessed by MTS assay and was performed according to previously established methods (Zhou 2009). The MTS assay is a colorimetric method for determining the number of viable cells that is based on the bioreduction of MTS by cells to a formazan product that is soluble in cell culture medium and can be detected spectrophotometrically. […] All experimental points were set up in six wells and all experiments were repeated at least three times. […] The curves were fitted using a non-linear regression model with a sigmoidal dose response.

Experiment [2] deals with recombinant EGFR T790M/L858R kinase (Homo sapiens (Human), UniProt P00533, L858R/T790M). In words: HTRF-based EGFR biochemical assay. The method, then:
EGFR biochemical assays are carried out using a homogeneous time-resolved fluorescence (HTRF) assay. The reaction mixtures contain biotin-Lck-peptide substrate, wild type, or mutant EGFR enzyme in reaction buffer. Enzyme concentrations are adjusted to accommodate varying kinase activity and ATP concentrations. Compounds of the present application are diluted into the assay mixture and IC50 values are determined using 12-point inhibition curves.
EGFR kinase proteins were purified by glutathione-affinity chromatography followed by size-exclusion chromatography after cleavage with TEV or thrombin to remove the GST fusion partner following established procedures. (Yun 2008; Yun 2007).
EGFR biochemical assays were carried out using a homogeneous time-resolved fluorescence (HTRF) assay as described previously. The reaction mixtures contained 1 μM biotin-Lck-peptide substrate, wild type or mutant EGFR enzyme in reaction buffer (50 mM HEPES pH 7.1, 10 mM MgCl2, 0.01% BSA. 1 mM TCEP and 0.1 mM Na3VO4) at a final volume of 10 μL. […] All reactions were carried out at room temperature in white ProxiPlate™ 384-well Plus plates (PerkinElmer) and were quenched with 5 μL of 0.2 M EDTA at 60 min. Five μL per well of the detection reagent containing 2.5 ng PT66K (Cis-bio) and 0.05 μg SAXL (Prozyme) were added, and the plates were then incubated at room temperature for 1 hour and read with an EnVision plate reader.

Experiment [3] relates to EGFR L858R/T790M/C797S Ba/F3 cell line. In words: Ba/F3 cell proliferation (MTS assay), EGFR L858R/T790M/C797S. In kind it is cell-based, murine. The note with it: Mus musculus, BaF3, compound at 1 μM, read-out: Inhibition of proliferation, Activity (% DMSO control). The source says:
The selectivity between wild-type EGFR and EGFR containing one or more mutations as described herein can also be measured using cellular proliferation assays where cell proliferation is dependent on kinase activity. For example, murine Ba/F3 cells transfected with a suitable version of wild-type EGFR (such as VIII; containing a WT EGFR kinase domain), or Ba/F3 cells transfected with L858R/T790M, Del/T790M/L718Q, L858R/T790M/L718Q, L858R/T790M/C797S, Del/T790M/C797S, L858R/T790M/I941R, or Exon 19 deletion/T790M can be used. Proliferation assays are performed at a range of inhibitor concentrations (e.g., 10 μM, 3 μM, 1.1 μM, 330 nM, 110 nM, 33 nM, I1 nM, 3 nM, 1 nM) and an EC50 is calculated.
The EGFR mutant L858R, Del E746_A750, L858R/T790M, DelE746_A750/T790M, L858R/T790M/C797S and Del/T790M/C797S Ba/F3 cells were previously described (Zhou et al., Nature 462, (2009), 1070-1074). All cell lines were maintained in RPMI 1640 (Cellgro; Mediatech Inc., Herndon, Calif.) supplemented with 10% FBS 100 units/mL penicillin, 100 units/mL streptomycin, and 2 mM glutamine. L858R cells were maintained in ACL-4 media (Invitrogen, Carlsbad, Calif.) supplemented with 5% FBS, 100 units/mL penicillin, 100 units/mL streptomycin, and 2 mM glutamine. The EGFR I941R mutation was introduced via site directed mutagenesis using the Quick Change Site-Directed Mutagenesis kit (Stratagene; La Jolla, Calif.) according to the manufacturer's instructions. All constructs were confirmed by DNA sequencing. The constructs were shuttled into the retroviral vector JP1540 using the BD Creator™ System (BD Biosciences). Ba/F3 cells were infected with retrovirus and according to standard protocols, as described previously (Zhou 2009). Stable clones were obtained by selection in puromycin (2 μg/ml).
Growth and inhibition of growth was assessed by MTS assay and was performed according to previously established methods (Zhou 2009). The MTS assay is a colorimetric method for determining the number of viable cells that is based on the bioreduction of MTS by cells to a formazan product that is soluble in cell culture medium and can be detected spectrophotometrically. Ba/F3 cells of different EGFR genotypes were exposed to treatment and the number of cells used per experiment determined empirically and has been previously established (Zhou 2009). All experimental points were set up in six wells and all experiments were repeated at least three times. […] The curves were fitted using a non-linear regression model with a sigmoidal dose response.
(Tetrazolium dyes change colour on reduction, which living cells bring about.)

[4] abbreviates: Mus musculus, BaF3, read-out: Ba/F3 cellular activity (EC50) T790M/L858R.
Where [5] appears, read: read-out: Ba/F3 cellular activity (EC50) T790M/L858R + Cetuximab (1 μg/mL), presence of 1 μg/mL cetuximab.

Where two headings read alike, the source gives them in different places.

recombinant EGFR T790M/L858R kinase, sequence (P00533 696-1022 T790M/L858R): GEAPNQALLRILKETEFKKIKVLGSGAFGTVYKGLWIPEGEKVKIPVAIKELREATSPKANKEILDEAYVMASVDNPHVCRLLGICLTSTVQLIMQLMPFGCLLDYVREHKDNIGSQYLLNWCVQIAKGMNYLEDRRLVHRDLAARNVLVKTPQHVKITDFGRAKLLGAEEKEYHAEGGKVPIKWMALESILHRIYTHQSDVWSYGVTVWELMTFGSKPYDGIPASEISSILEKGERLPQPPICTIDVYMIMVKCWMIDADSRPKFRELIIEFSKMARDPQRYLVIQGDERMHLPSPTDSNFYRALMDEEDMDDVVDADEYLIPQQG

As for `CN1CCC(n2cc(-c3ccc4c(c3)C(=O)N(Cc3cccc5cc[nH]c35)c3cc(F)ccc3N4)cn2)CC1` [Compound I-25], the EC50 in experiment [1] (setting [4]) and in experiment [1] (setting [5]) was ≥ 750 nM in each case. In experiment [2], the IC50 was < 250 nM.

As for `O=C1c2cc(-c3ccc4[nH]ccc4c3)ccc2Nc2ccc(F)cc2N1Cc1nccs1` [Compound I-10], the inhibition at 1 µM in experiment [1] (Mus musculus, BaF3) was ≥ 75%; in experiment [3], ≥ 75%. Further, the EC50 in experiment [1] (setting [4]) and in experiment [1] (setting [5]) was ≥ 750 nM throughout.

In the case of `CN1CCC(n2cc(-c3ccc4c(c3)C(=O)N(Cc3cccc(Cl)c3)c3cc(F)ccc3N4)cn2)CC1` [Compound I-23], the EC50 in experiment [1] (setting [4]) and in experiment [1] (setting [5]) was ≥ 750 nM throughout. The IC50 in experiment [2] was < 250 nM.

Take `O=C1c2cc(-c3ccc(N4CCNCC4)cc3)ccc2Nc2ccc(F)cc2N1Cc1cccnc1` [Compound I-6]: the inhibition at 1 µM in experiment [1] (Mus musculus, BaF3) is ≥ 75%; in experiment [3], ≥ 75%. The EC50 in experiment [1] (setting [4]) and in experiment [1] (setting [5]) was ≥ 750 nM in each case.

For `Nc1ccc2c(c1)N(Cc1ccccc1)C(=O)c1cc(-c3ccc4[nH]ccc4c3)ccc1N2` [Compound I-14], the EC50 in experiment [1] (setting [4]) and in experiment [1] (setting [5]) was ≥ 750 nM throughout.

`CN1CCC(n2cc(-c3ccc4c(c3)C(=O)N(Cc3cccc(F)c3)c3cc(F)ccc3N4)cn2)CC1` [Compound I-22]: the EC50 in experiment [1] (setting [4]) and in experiment [1] (setting [5]) was ≥ 750 nM each time. Besides, in experiment [2], the IC50 was < 250 nM.

As to `O=C1c2cc(-c3ccc4[nH]ccc4c3)ccc2Nc2ccc(F)cc2N1Cc1ccccc1` [Compound I-2], the inhibition at 1 µM in experiment [1] (Mus musculus, BaF3) is ≥ 75%; in experiment [3] it was ≥ 75%. Besides, the EC50 in experiment [1] (setting [4]) is ≥ 750 nM; in experiment [1] (setting [5]), < 250 nM. For the same compound, the IC50 in experiment [2] was < 250 nM.

Consider `O=C1c2cc(-c3ccc(N4CCNCC4)cc3)ccc2Nc2ccc(F)cc2N1c1ccccc1` [Compound I-5], for which the inhibition at 1 µM in experiment [1] (Mus musculus, BaF3) was ≥ 75%; in experiment [3], ≥ 75%. For the same compound, the EC50 in experiment [1] (setting [4]) and in experiment [1] (setting [5]) was ≥ 750 nM in each case.

Turning to `CN1CCC(n2cc(-c3ccc4c(c3)C(=O)N(Cc3cc(F)cc(F)c3)c3cc(F)ccc3N4)cn2)CC1` [Compound I-24], the EC50 in experiment [1] (setting [4]) and in experiment [1] (setting [5]) was ≥ 750 nM throughout. Moreover, the half-inhibitory concentration (IC50) in experiment [2] was < 250 nM.

On to `CN1CCN(c2ccc(Oc3ccc4c(c3)C(=O)N(Cc3ccccc3)c3cc(F)ccc3N4)cc2)CC1` [Compound I-20, 10-benzyl-8-fluoro-2-(4-(4-methylpiperazin-1-yl)phenoxy)-5,10-dihydro-11H-dibenzo[b,e][1,4]diazepin-11-one], for which the EC50 in experiment [1] (setting [4]) was ≥ 750 nM; in experiment [1] (setting [5]), 250 to 500 nM. For the same compound, the IC50 in experiment [2] is < 250 nM.

Consider `O=C1c2cc(-c3ccc(N4CCNCC4)cc3)ccc2Nc2ccc(F)cc2N1Cc1cccc2cc[nH]c12` [Compound I-18], for which the results for the EC50 in experiment [1] (setting [4]) and in experiment [1] (setting [5]) were ≥ 750 nM and < 250 nM, respectively. Also, the half-maximal inhibitory concentration (IC50) in experiment [2] is < 250 nM.

For the compound `O=C1c2cc(-c3ccc(N4CCNCC4)cc3)ccc2Nc2ccc(F)cc2N1Cc1ccc2cc[nH]c2c1` [Compound I-19], the EC50 in experiment [1] (setting [4]) and in experiment [1] (setting [5]) was ≥ 750 nM throughout.

`O=C1c2cc(-c3ccc(N4CCNCC4)cc3)ccc2Nc2ccncc2N1Cc1ccccc1` [Compound I-13]: the EC50 in experiment [1] (setting [4]) and in experiment [1] (setting [5]) was ≥ 750 nM throughout.

For `O=C1c2cc(-c3ccc4[nH]ccc4c3)ccc2Nc2ccc(F)cc2N1c1ccccc1` [Compound I-8], the inhibition at 1 µM in experiment [1] (Mus musculus, BaF3) was ≥ 75%; in experiment [3] it was ≥ 75%. Moreover, the EC50 in experiment [1] (setting [4]) and in experiment [1] (setting [5]) was ≥ 750 nM in each case.

Turning to `O=C1c2cc(-c3ccc(N4CCNCC4)cc3)ccc2Nc2ccc(F)cc2N1Cc1ccccc1` [Compound I-1, 10-Benzyl-8-fluoro-2-(4-(piperazin-1-yl)phenyl)-5,10-dihydro-11H-dibenzo[b,e][1,4]diazepin-11-one], the inhibition at 1 µM in experiment [1] (Mus musculus, BaF3) was ≥ 75%; in experiment [3] it was ≥ 75%. Moreover, the figures for the EC50 in experiment [1] (setting [4]) and in experiment [1] (setting [5]) were ≥ 750 nM and 500 to 750 nM, respectively. Further, the IC50 in experiment [2] was < 250 nM.

Consider `O=C1c2cc(-c3ccc(N4CCNCC4)cc3)ccc2Nc2ccc(F)cc2N1Cc1nccs1` [Compound I-7], for which the inhibition at 1 µM was ≥ 75% in experiment [1] (Mus musculus, BaF3) and ≥ 75% in experiment [3]. The EC50 in experiment [1] (setting [4]) and in experiment [1] (setting [5]) was ≥ 750 nM in each case. Further, the IC50 in experiment [2] was < 250 nM.

On to `CCC(=O)Nc1ccc2c(c1)N(Cc1ccccc1)C(=O)c1cc(-c3ccc4[nH]ccc4c3)ccc1N2` [Compound I-16], for which the EC50 in experiment [1] (setting [4]) and in experiment [1] (setting [5]) was 250 to 500 nM throughout.

For the compound `O=C1c2cc(-c3ccc(-c4cn[nH]c4)cc3)ccc2Nc2ccc(F)cc2N1Cc1ccccc1` [Compound I-4], the inhibition at 1 µM in experiment [1] (Mus musculus, BaF3) is ≥ 75%; in experiment [3], ≥ 75%. Moreover, the figures for the EC50 in experiment [1] (setting [4]) and in experiment [1] (setting [5]) were ≥ 750 nM and 250 to 500 nM, respectively. Besides, in experiment [2], the IC50 was < 250 nM.

Consider `O=C1c2cc(-c3ccc4[nH]ccc4c3)ccc2Nc2ccc(F)cc2N1Cc1cccnc1` [Compound I-9], for which the inhibition at 1 µM is ≥ 75% in experiment [1] (Mus musculus, BaF3) and ≥ 75% in experiment [3]. In addition, the EC50 in experiment [1] (setting [4]) and in experiment [1] (setting [5]) was ≥ 750 nM each time.

For the compound `O=C1c2cc(-c3ccc(N4CCNCC4)cc3)ccc2Nc2ncc(F)cc2N1Cc1ccccc1` [Compound I-12], the EC50 in experiment [1] (setting [4]) and in experiment [1] (setting [5]) was ≥ 750 nM in each case.

On to `CC(=O)Nc1ccc2c(c1)N(Cc1ccccc1)C(=O)c1cc(-c3ccc4[nH]ccc4c3)ccc1N2` [Compound I-15], for which the EC50 in experiment [1] (setting [4]) and in experiment [1] (setting [5]) was ≥ 750 nM each time.

With `CN1CCC(c2ccc(-c3ccc4c(c3)C(=O)N(Cc3ccccc3)c3cc(F)ccc3N4)cc2)CC1` [Compound I-17], the half-maximal inhibitory concentration (IC50) in experiment [2] was < 250 nM.

On to `O=C1c2cc(Br)ccc2Nc2ccc(F)cc2N1Cc1ccccc1` [I-a], for which the EC50 in experiment [1] (setting [4]) was ≥ 750 nM; in experiment [1] (setting [5]), 250 to 500 nM. The IC50 in experiment [2] was < 250 nM.

A word on the IC50: it is the concentration that gives 50% inhibition.
